Measurements as given in patent US10131652B2, “Pyrimidinyloxy benzene derivatives as herbicides” (E. I. DU PONT DE NEMOURS AND COMPANY, priority 2014, dated 2018).
Like-named read-outs stand apart in the source and are kept apart here.

What was measured:
Test in all cases: Test E pre-/postemergence plant response
Format in all cases: in vivo
[1] = tested on: winter wheat (Triticum aestivum); conditions: post-emergence, Postemergence, scale 0 to 100, read-out: Plant response rating, Wheat, Winter
In short: (§1)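 Visual scores on a 0–100 scale (100 = complete control) were assigned against untreated controls 7–21 days after treatment in a controlled environment. Compounds, formulated with solvent plus surfactant, were applied to pre-emergence silt-loam sowings or to 1- to 4-leaf plants (2–18 cm) in potting medium.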

[2] = tested on: Italian ryegrass (Lolium multiflorum); conditions: scale 0 to 100, read-out: Plant response rating, Ryegrass, Italian; for pest or weed control at 16 g/ha: 16 g ai/ha; for pest or weed control at 31 g/ha: 31 g ai/ha; for pest or weed control at 62 g/ha: 62 g ai/ha; for pest or weed control at 125 g/ha: 125 g ai/ha
In short: as §1

[3] = tested on: kochia (Kochia scoparia); conditions: Bassia scoparia, scale 0 to 100, read-out: Plant response rating, Kochia; for pest or weed control at 16 g/ha: 16 g ai/ha; for pest or weed control at 31 g/ha: 31 g ai/ha; for pest or weed control at 62 g/ha: 62 g ai/ha; for pest or weed control at 125 g/ha: 125 g ai/ha
In short: as §1

[4] = tested on: canarygrass (Phalaris minor); conditions: scale 0 to 100, read-out: Plant response rating, Canarygrass; for pest or weed control at 16 g/ha: 16 g ai/ha; for pest or weed control at 31 g/ha: 31 g ai/ha; for pest or weed control at 62 g/ha: 62 g ai/ha; for pest or weed control at 125 g/ha: 125 g ai/ha
In short: as §1

[5] = tested on: chickweed (common chickweed, Stellaria media); conditions: scale 0 to 100, read-out: Plant response rating, Chickweed; for pest or weed control at 16 g/ha: 16 g ai/ha; for pest or weed control at 31 g/ha: 31 g ai/ha; for pest or weed control at 62 g/ha: 62 g ai/ha; for pest or weed control at 125 g/ha: 125 g ai/ha
In short: as §1

[6] = tested on: spring barley (Hordeum vulgare); conditions: post-emergence, Postemergence
In short: as §1

[7] = tested on: wild radish (Raphanus raphanistrum); conditions: scale 0 to 100, read-out: Plant response rating, Radish, Wild; for pest or weed control at 16 g/ha: 16 g ai/ha; for pest or weed control at 31 g/ha: 31 g ai/ha; for pest or weed control at 62 g/ha: 62 g ai/ha; for pest or weed control at 125 g/ha: 125 g ai/ha
In short: as §1

[8] = tested on: field poppy (Papaver rhoeas); conditions: scale 0 to 100, read-out: Plant response rating, Field Poppy; for pest or weed control at 16 g/ha: 16 g ai/ha; for pest or weed control at 31 g/ha: 31 g ai/ha; for pest or weed control at 62 g/ha: 62 g ai/ha; for pest or weed control at 125 g/ha: 125 g ai/ha
In short: as §1

[9] = tested on: windgrass (Apera spica-venti); conditions: scale 0 to 100, read-out: Plant response rating, Windgrass; for pest or weed control at 16 g/ha: 16 g ai/ha; for pest or weed control at 62 g/ha: 62 g ai/ha; for pest or weed control at 125 g/ha: 125 g ai/ha
In short: as §1

[10] = tested on: spring wheat (Triticum aestivum); conditions: post-emergence, Postemergence, scale 0 to 100, read-out: Plant response rating, Wheat, Spring
In short: as §1

[11] = tested on: pigweed (Amaranthus retroflexus); conditions: scale 0 to 100, read-out: Plant response rating, Pigweed; for pest or weed control at 16 g/ha: 16 g ai/ha; for pest or weed control at 31 g/ha: 31 g ai/ha; for pest or weed control at 62 g/ha: 62 g ai/ha; for pest or weed control at 125 g/ha: 125 g ai/ha
In short: as §1

FC(F)c1cc(-c2ccccc2Oc2ncc(Cl)cn2)no1 [Compound 35, 5-chloro-2-[2-[5-(difluoromethyl)-3-isoxazolyl]phenoxy]pyrimidine]
95%: pest or weed control at 62 g/ha ([4]; pre-emergence, Preemergence) | pest or weed control at 62 g/ha ([5]; pre-emergence, Preemergence) | pest or weed control at 125 g/ha ([7]; post-emergence, Postemergence) | pest or weed control at 31 g/ha ([7]; pre-emergence, Preemergence) | pest or weed control at 31 g/ha ([11]; pre-emergence, Preemergence)
70%: pest or weed control at 16 g/ha ([8]; post-emergence, Postemergence)
35%: pest or weed control at 62 g/ha ([2]; pre-emergence, Preemergence) | pest or weed control at 16 g/ha ([9]; pre-emergence, Preemergence)
60%: pest or weed control at 125 g/ha ([2]; post-emergence, Postemergence) | pest or weed control at 125 g/ha ([4]; post-emergence, Postemergence)
65%: pest or weed control at 31 g/ha ([3]; pre-emergence, Preemergence) | pest or weed control at 16 g/ha ([5]; post-emergence, Postemergence) | pest or weed control at 16 g/ha ([7]; post-emergence, Postemergence)
75%: pest or weed control at 125 g/ha ([2]; pre-emergence, Preemergence) | pest or weed control at 16 g/ha ([3]; post-emergence, Postemergence) | pest or weed control at 31 g/ha ([3]; post-emergence, Postemergence) | pest or weed control at 31 g/ha ([5]; post-emergence, Postemergence) | pest or weed control at 62 g/ha ([5]; post-emergence, Postemergence) | pest or weed control at 31 g/ha ([7]; post-emergence, Postemergence) | pest or weed control at 31 g/ha ([8]; post-emergence, Postemergence) | pest or weed control at 16 g/ha ([8]; pre-emergence, Preemergence)
40%: plant injury at 125 g/ha ([1]; 125 g ai/ha) | pest or weed control at 16 g/ha ([4]; pre-emergence, Preemergence) | pest or weed control at 125 g/ha ([9]; post-emergence, Postemergence) | plant injury at 125 g/ha ([10]; 125 g ai/ha)
55%: pest or weed control at 62 g/ha ([4]; post-emergence, Postemergence) | pest or weed control at 31 g/ha ([4]; pre-emergence, Preemergence) | pest or weed control at 16 g/ha ([5]; pre-emergence, Preemergence)
5%: plant injury at 16 g/ha ([1]; 16 g ai/ha) | pest or weed control at 31 g/ha ([2]; post-emergence, Postemergence) | plant injury at 16 g/ha ([6]; 16 g ai/ha, scale 0 to 100, read-out: Plant response rating, Barley, Spring) | plant injury at 31 g/ha ([6]; 31 g ai/ha, scale 0 to 100, read-out: Plant response rating, Barley, Spring)
10%: pest or weed control at 16 g/ha ([4]; post-emergence, Postemergence) | plant injury at 62 g/ha ([6]; 62 g ai/ha, scale 0 to 100, read-out: Plant response rating, Barley, Spring) | pest or weed control at 16 g/ha ([9]; post-emergence, Postemergence) | plant injury at 31 g/ha ([10]; 31 g ai/ha)
90%: pest or weed control at 125 g/ha ([3]; post-emergence, Postemergence) | pest or weed control at 62 g/ha ([8]; pre-emergence, Preemergence) | pest or weed control at 125 g/ha ([8]; pre-emergence, Preemergence) | pest or weed control at 31 g/ha ([11]; post-emergence, Postemergence) | pest or weed control at 62 g/ha ([11]; post-emergence, Postemergence) | pest or weed control at 125 g/ha ([11]; post-emergence, Postemergence) | pest or weed control at 16 g/ha ([11]; pre-emergence, Preemergence)
80%: pest or weed control at 62 g/ha ([3]; post-emergence, Postemergence) | pest or weed control at 62 g/ha ([8]; post-emergence, Postemergence) | pest or weed control at 31 g/ha ([8]; pre-emergence, Preemergence)
100%: pest or weed control at 62 g/ha ([3]; pre-emergence, Preemergence) | pest or weed control at 125 g/ha ([3]; pre-emergence, Preemergence) | pest or weed control at 125 g/ha ([4]; pre-emergence, Preemergence) | pest or weed control at 125 g/ha ([5]; post-emergence, Postemergence) | pest or weed control at 31 g/ha ([5]; pre-emergence, Preemergence) | pest or weed control at 125 g/ha ([5]; pre-emergence, Preemergence) | pest or weed control at 16 g/ha ([7]; pre-emergence, Preemergence) | pest or weed control at 62 g/ha ([7]; pre-emergence, Preemergence) | pest or weed control at 125 g/ha ([7]; pre-emergence, Preemergence) | pest or weed control at 125 g/ha ([8]; post-emergence, Postemergence) | pest or weed control at 125 g/ha ([9]; pre-emergence, Preemergence) | pest or weed control at 62 g/ha ([11]; pre-emergence, Preemergence) | pest or weed control at 125 g/ha ([11]; pre-emergence, Preemergence)
15%: plant injury at 31 g/ha ([1]; 31 g ai/ha)
30%: pest or weed control at 62 g/ha ([9]; post-emergence, Postemergence)
25%: plant injury at 62 g/ha ([1]; 62 g ai/ha) | pest or weed control at 62 g/ha ([2]; post-emergence, Postemergence) | pest or weed control at 31 g/ha ([2]; pre-emergence, Preemergence) | pest or weed control at 16 g/ha ([3]; pre-emergence, Preemergence) | pest or weed control at 31 g/ha ([4]; post-emergence, Postemergence) | plant injury at 125 g/ha ([6]; 125 g ai/ha, scale 0 to 100 (0 no effect, 100 complete control), read-out: Plant response rating, Barley, Spring) | pest or weed control at 31 g/ha ([9]; post-emergence, 31 g ai/ha, Postemergence) | plant injury at 62 g/ha ([10]; 62 g ai/ha)
0%: pest or weed control at 16 g/ha ([2]; post-emergence, Postemergence) | pest or weed control at 16 g/ha ([2]; pre-emergence, Preemergence) | plant injury at 16 g/ha ([10]; 16 g ai/ha)
85%: pest or weed control at 62 g/ha ([7]; post-emergence, Postemergence) | pest or weed control at 62 g/ha ([9]; pre-emergence, Preemergence) | pest or weed control at 16 g/ha ([11]; post-emergence, Postemergence)
